Experimental data published in ChEMBL document CHEMBL1201862, “PubChem BioAssay data set” (2004).
Values joined by “and” are separate entries in the source; they are usually repeats but may differ in a detail not shown here. Equal entries are not always repeated. Active and inactive are the calls of the source.

Assays:
[1] = target: T1, Cytochrome P450 1A2 (Homo sapiens, UniProt P05177);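 further: PubChem cytochrome P450 panel assay, CYP1A2 panel member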
T1 sequence (P05177 whole entry): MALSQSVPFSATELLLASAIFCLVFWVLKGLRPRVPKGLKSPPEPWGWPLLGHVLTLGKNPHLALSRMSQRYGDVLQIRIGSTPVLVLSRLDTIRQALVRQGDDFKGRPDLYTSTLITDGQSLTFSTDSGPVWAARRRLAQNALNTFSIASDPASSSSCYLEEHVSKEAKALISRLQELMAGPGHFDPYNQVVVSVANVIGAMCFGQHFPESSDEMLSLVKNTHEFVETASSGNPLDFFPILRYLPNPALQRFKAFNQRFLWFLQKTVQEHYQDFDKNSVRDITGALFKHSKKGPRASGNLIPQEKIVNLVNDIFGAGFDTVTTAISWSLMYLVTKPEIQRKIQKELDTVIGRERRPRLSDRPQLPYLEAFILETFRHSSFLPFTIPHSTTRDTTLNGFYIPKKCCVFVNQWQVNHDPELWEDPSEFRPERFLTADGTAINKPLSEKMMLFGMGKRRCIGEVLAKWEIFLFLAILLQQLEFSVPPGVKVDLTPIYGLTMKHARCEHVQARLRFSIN

[2] = target: T2, Corticotropin-releasing factor receptor 2/Corticotropin-releasing factor-binding protein (Homo sapiens, UniProt P24387+Q13324); test: Dose Response confirmation of uHTS hits for small molecule antagonists of the CRF-binding protein and CRF-R2 receptor complex.; format: functional; conditions: read-out: IC50_Mean
T2 sequence (Q13324 whole entry): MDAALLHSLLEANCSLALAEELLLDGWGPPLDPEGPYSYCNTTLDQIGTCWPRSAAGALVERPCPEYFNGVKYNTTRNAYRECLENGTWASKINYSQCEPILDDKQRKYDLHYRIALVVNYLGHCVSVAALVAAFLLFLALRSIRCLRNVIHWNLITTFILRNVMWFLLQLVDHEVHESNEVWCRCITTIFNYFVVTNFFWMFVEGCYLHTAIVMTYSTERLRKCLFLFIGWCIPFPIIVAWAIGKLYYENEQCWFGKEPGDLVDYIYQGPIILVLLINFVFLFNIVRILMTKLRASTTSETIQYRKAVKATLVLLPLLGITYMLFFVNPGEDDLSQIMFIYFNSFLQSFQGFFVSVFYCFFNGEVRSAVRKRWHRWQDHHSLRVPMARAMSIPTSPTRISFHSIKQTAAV
T2 sequence (P24387 whole entry): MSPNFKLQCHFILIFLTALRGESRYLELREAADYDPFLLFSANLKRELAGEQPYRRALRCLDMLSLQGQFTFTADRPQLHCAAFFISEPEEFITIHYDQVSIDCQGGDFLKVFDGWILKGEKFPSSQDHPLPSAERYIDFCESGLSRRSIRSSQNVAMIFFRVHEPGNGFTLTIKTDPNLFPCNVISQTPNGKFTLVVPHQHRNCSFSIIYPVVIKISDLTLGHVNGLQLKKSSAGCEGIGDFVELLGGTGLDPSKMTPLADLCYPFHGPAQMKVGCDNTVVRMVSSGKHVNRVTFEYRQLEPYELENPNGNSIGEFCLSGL

[3] = target: T2, Corticotropin-releasing factor receptor 2/Corticotropin-releasing factor-binding protein; test: activators of CRF receptor 2 with binding protein – uHTS hits, confirmation (AID 602473); format: functional; conditions: read-out: EC50_Mean
[4] = target: Paired box protein Pax-8 (Homo sapiens, UniProt Q06710); test: inhibitors of PAX8-driven TPO luciferase reporter, dose response, RMG-I cells, cherry-pick (AID 687027); format: functional, cell-based;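 further: luciferase reporter driven by Pax8 target thyroperoxidase promoter measured by SteadyGlo luminescence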
Paired box protein Pax-8, sequence (Q06710 whole entry): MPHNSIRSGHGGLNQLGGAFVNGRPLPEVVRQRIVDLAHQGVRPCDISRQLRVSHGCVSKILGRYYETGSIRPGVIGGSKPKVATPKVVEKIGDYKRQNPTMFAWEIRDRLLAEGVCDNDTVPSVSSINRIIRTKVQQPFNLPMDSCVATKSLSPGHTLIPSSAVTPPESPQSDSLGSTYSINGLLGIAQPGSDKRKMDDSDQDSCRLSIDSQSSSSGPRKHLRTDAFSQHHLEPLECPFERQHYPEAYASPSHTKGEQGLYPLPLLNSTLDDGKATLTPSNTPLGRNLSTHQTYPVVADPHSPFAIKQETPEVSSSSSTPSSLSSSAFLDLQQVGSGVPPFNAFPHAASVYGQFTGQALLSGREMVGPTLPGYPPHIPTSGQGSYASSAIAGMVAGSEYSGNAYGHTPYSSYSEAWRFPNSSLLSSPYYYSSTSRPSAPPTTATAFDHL

[5] = target: T3, Heat shock factor protein 1 (Mus musculus, UniProt P38532); test: HSF1 potentiators in luciferase reporter cells, confirmation, cell-based, NIH3T3, luminescence, dose retest (AID 435004); format: functional;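 further: stress induced by proteasome inhibitor MG132 added 30 min after compound; luciferase reporter driven by HSF1 response element in NIH3T3 cells; actives raise luminescence as potentiators of the MG132 stress response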
T3 sequence (P38532 whole entry): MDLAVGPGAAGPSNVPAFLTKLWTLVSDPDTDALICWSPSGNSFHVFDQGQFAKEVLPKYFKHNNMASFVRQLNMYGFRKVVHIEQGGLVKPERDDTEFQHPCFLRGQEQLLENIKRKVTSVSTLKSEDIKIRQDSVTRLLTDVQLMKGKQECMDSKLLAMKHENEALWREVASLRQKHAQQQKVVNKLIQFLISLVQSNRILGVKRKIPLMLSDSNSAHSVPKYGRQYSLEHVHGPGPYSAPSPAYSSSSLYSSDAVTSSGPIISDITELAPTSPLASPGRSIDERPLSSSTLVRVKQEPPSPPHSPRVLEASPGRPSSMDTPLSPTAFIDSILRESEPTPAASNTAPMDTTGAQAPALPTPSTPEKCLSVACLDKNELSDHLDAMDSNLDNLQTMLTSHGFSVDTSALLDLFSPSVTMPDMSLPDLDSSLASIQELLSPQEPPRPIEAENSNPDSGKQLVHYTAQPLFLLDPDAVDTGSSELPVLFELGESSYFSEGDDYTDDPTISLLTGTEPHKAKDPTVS

[6] = HEp-2 cell cytotoxicity, dose response, cytotoxicity control for RSV inhibitor project, HTS (AID 2410); format: functional; conditions: human respiratory syncytial virus
[7] = target: Cytochrome P450 2C19 (Homo sapiens, UniProt P33261); test: Cytochrome panel assay with activity outcomes. Panel member name: p450-cyp2c19 Compounds with AC50 equal or less than 10 uM are considered active; format: functional; conditions: read-out: AC50
Cytochrome P450 2C19, sequence (P33261 whole entry): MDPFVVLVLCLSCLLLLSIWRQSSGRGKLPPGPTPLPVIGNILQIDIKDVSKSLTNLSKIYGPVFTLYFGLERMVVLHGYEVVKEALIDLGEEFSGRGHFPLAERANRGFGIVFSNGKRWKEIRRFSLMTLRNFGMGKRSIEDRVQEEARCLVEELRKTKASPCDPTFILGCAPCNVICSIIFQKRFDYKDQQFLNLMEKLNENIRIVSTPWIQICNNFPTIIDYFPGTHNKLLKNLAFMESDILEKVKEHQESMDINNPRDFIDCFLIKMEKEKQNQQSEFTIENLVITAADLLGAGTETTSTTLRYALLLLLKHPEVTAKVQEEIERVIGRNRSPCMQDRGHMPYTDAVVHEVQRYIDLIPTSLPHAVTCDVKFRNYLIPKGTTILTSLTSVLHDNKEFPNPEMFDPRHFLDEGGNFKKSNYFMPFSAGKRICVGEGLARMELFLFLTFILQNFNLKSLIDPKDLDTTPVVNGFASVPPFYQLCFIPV

[8] = target: Cytochrome P450 2C9 (Homo sapiens, UniProt P11712)
Cytochrome P450 2C9, sequence (P11712 whole entry): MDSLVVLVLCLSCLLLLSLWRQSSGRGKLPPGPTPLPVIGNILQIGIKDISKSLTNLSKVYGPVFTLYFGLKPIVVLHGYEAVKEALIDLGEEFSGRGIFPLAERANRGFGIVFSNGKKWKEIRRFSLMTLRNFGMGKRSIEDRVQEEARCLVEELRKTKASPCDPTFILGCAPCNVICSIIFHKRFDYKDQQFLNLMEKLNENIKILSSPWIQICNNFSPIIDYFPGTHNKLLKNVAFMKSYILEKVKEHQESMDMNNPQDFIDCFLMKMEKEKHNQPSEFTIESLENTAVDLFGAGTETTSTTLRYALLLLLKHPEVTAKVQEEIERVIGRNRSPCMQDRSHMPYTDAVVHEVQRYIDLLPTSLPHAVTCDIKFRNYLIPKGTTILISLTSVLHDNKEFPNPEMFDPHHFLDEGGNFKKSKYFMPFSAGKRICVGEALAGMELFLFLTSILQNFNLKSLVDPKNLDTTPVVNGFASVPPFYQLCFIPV

[9] = target: Cytochrome P450 3A4 (Homo sapiens, UniProt P08684);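 further: CYP3A4 tested as one member of a cytochrome P450 panel screen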
Cytochrome P450 3A4, sequence (P08684 whole entry): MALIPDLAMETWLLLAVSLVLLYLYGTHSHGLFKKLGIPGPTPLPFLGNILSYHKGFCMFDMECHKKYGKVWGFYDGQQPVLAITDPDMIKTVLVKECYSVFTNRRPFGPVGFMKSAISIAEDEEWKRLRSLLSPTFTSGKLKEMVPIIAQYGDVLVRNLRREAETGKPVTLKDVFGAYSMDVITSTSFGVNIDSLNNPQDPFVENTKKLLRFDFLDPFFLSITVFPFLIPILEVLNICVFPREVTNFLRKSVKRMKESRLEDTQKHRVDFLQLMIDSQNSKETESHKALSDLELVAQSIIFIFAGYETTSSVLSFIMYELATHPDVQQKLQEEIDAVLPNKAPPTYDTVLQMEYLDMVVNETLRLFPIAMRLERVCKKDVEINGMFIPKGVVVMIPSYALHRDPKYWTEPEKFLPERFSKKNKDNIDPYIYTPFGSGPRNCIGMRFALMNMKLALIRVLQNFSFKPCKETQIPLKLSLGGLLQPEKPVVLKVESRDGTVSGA

[10] = inhibitors of intracellular T. cruzi replication, confirmation, NIH3T3 host cells, beta-gal luminescence (AID 2044); format: functional, cell-based;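 further: intracellular parasites grown in NIH/3T3 mouse fibroblasts as host cells; luminescent beta-galactosidase reporter signal from transgenic T. cruzi replicating inside host cells; inhibitors lower the luminescence signal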
[11] = cytotoxicity toward NIH3T3 fibroblasts, dose response, counter-screen, cell-based, ATP luminescence, mouse fibroblasts (AID 2010); format: functional;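 further: cells exposed to compound for about 90 hours before reading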

Compound: N=C(N)NC(=O)c1nc(Cl)c(N)nc1N [AMILORIDE]
- AC50 [1]: 39.8 µM (inconclusive) and 12.6 µM (inconclusive)

Compound: CC(=O)Nc1ccc(NC(=O)C(C)OC(=O)C2CCCCC2)cc1 (stereo not given)
- IC50 [2]: > 47.1 µM (inactive)
- EC50 [3]: > 53 µM (inactive)

Compound: O=C(Nc1cc2c(oc1=O)CCCC2=O)c1ccc(Cl)cc1
- AC50 [1]: 14.1 µM (inconclusive)

Compound: COc1cc(-c2cnc3c(NC=O)cc(-c4ccccc4)cn23)cc(OC)c1OC
- AC50 [4]: 2.79 µM (active)

Compound: CCOC(=O)c1c(C)[nH]c(C)c1S(=O)(=O)N1CCN(c2ccc(F)cc2)CC1
- EC50 [5]: > 260 µM (inactive)

Compound: CC(C)NC(=O)c1onc(CSc2cccc3ccccc23)c1C(=O)O
- CC50 [6]: 12.6 µM (active)

Compound: Cc1ccc(NC2=NC(N)=NC3(CCCC3)N2)c(C)c1
- EC50 [5]: > 260 µM (inactive)

Compound: CC1=C(C(=O)OC(C)(C)C)C(c2cccc3ccccc23)NC(=O)N1 (stereo not given)
- IC50 [2]: > 47.1 µM (inactive)
- EC50 [3]: > 53 µM (inactive)

Compound: Cc1ccc([N+](=O)[O-])cc1NC(=O)CN(C)CCOc1ccccc1
- CC50 [6]: 24.3 µM (active)

Compound: CCOC(=O)COc1cc(OCC(=O)OCC)c2c(=O)cc(-c3ccccc3)oc2c1
- AC50 [1]: 15.8 µM (inconclusive)

Compound: CCOC(=O)/C(=N/Nc1ccc(Cl)cc1)Sc1nnnn1-c1ccc(C)cc1
- EC50 [5]: > 260 µM (inactive)

Compound: Clc1ccc(OCCn2c(-c3ccco3)nc3ccccc32)cc1
- EC50 [5]: 12 µM (active)

Compound: C[C@H](CO)N1C[C@H](C)[C@H](CN(C)Cc2ccc(Cl)c(Cl)c2)OCCCC[C@H](C)Oc2ccc(NC(=O)NC3CCCCC3)cc2C1=O
- AC50 [4]: 11.7 µM (active)

Compound: CCCN(C(=O)CSc1n[nH]c(-c2ccc(OC)cc2)n1)c1c(N)n(Cc2ccccc2)c(=O)[nH]c1=O
- IC50 [2]: > 47.1 µM (inactive)
- EC50 [3]: > 53 µM (inactive)

Compound: Oc1ccc(C[C@H]2CNC(=S)N2CC2CCCN2C[C@H](Cc2ccc(O)cc2)N2C[C@H](Cc3ccccc3)N(CC3CCCCCC3)C2=S)cc1 (stereo not given in full)
- AC50 [4]: 9.86 µM (active)

Compound: N#Cc1nc(NCC(F)F)nc(Nc2cc(F)cc(F)c2)n1
- AC50 [4]: 5.01 µM (active)

Compound: OC[C@@H](O)C1OC2N=C(S)OC2C1O (stereo not given in full)
- EC50 [5]: > 260 µM (inactive)

Compound: COc1ccc2nc(-c3ccccc3)cc(OC)c2c1
- CC50 [6]: > 50 µM (active)

Compound: COc1cccc(CNC(=O)Cn2nc(C)c([N+](=O)[O-])c2C)c1
- EC50 [5]: > 260 µM (inactive)

Compound: Cc1ccc(C2CC(C(F)F)n3ncc(C(=O)Nc4c(C)nn(Cc5c(F)cccc5Cl)c4C)c3N2)cc1 (stereo not given)
- CC50 [6]: 19.9 µM (active)

Compound: O=C1C2CC=CCC2C(=O)N1Cc1nnc(-c2ccc(Cl)cc2)o1 (stereo not given)
- EC50 [5]: 39.1 µM (active)

Compound: COc1ccc(/C=C(\C#N)C(=O)OCC(=O)Nc2ccc(-c3nc4ccc(C)cc4s3)cc2)cc1
- CC50 [6]: 18.6 µM (active)

Compound: C=C(C)Cn1c(SCC(=O)O)nnc1-c1ccc(OC)cc1
- EC50 [5]: > 260 µM (inactive)

Compound: CC(C)(C)c1ccc(C(=O)Nc2ccc(S(N)(=O)=O)cc2)cc1
- CC50 [6]: 20.1 µM (active)

Compound: COC(=O)C(NC(=O)c1ccc(Cl)cc1)(Nc1nc(C)cs1)C(F)(F)F (stereo not given)
- AC50 [1]: 28.2 µM (inconclusive)

Compound: COc1ccc(NS(=O)(=O)c2cccc(C(=O)N(C)Cc3ccc(SC)cc3)c2)cc1
- EC50 [5]: > 260 µM (inactive)

Compound: Cc1cc(C)cc(OCC(=O)O/N=C(\N)Cc2ccc([N+](=O)[O-])cc2)c1
- EC50 [5]: > 260 µM (inactive)

Compound: Cc1nn(-c2ccccc2)c(-c2ccccc2)c1C(=O)O
- AC50 [7]: 5.01 µM (inconclusive)
- AC50 [1]: 25.1 µM (inconclusive)
- AC50 [8]: 1.12 µM (inconclusive)

Compound: Cn1c(CNC(=O)Nc2ccccc2)nnc1SCc1ccccc1
- AC50 [1]: 25.1 µM (inconclusive)

Compound: Cc1ccc(S(=O)(=O)Nc2ccc3c(c2)C(=O)N([C@@H](C)CO)C[C@@H](C)[C@@H](CN(C)S(=O)(=O)c2ccc(Cl)cc2)OCCCC[C@@H](C)O3)cc1
- AC50 [4]: 10.4 µM (active)

Compound: CCOC(=O)C(C)n1cnc2c(oc3ccccc32)c1=O (stereo not given)
- AC50 [7]: 31.6 µM (inconclusive)
- AC50 [8]: 28.2 µM (inconclusive)

Compound: COC(=O)[C@@]1(Cc2ccc(OC)cc2)[C@H]2c3cc(C(=O)N4CCCC4)n(CCN4CCOCC4)c3C[C@H]2CN1C(=O)c1ccccc1
- AC50 [7]: 31.6 µM (inconclusive)
- AC50 [8]: 31.6 µM (inconclusive)

Compound: CSCCC(NS(=O)(=O)c1cccc(C(F)(F)F)c1)C(=O)N(C)CCOc1ccc(Cl)cc1 (stereo not given)
- EC50 [5]: > 260 µM (inactive)

Compound: O=C(COC(=O)C1CCN(S(=O)(=O)c2cccc3cccnc23)CC1)c1ccc([N+](=O)[O-])cc1
- EC50 [5]: > 260 µM (inactive)

Compound: CC(=O)CSc1ncnc2sc3c(c12)CCC3
- CC50 [6]: 32.7 µM (active)

Compound: COC(=O)CSC(C(=O)Nc1ccc(C)c(C)c1)c1ccccc1 (stereo not given)
- AC50 [7]: 0.398 µM (inconclusive)
- AC50 [1]: 8.91 µM (inconclusive)

Compound: Cc1ccc(/C=C/c2nnc(-c3ccc(C)cc3)o2)cc1
- AC50 [1]: 4.47 µM (inconclusive)
- AC50 [9]: 10 µM (inconclusive)
- AC50 [8]: 5.62 µM (inconclusive)

Compound: Fc1ccc(CCNCc2ccc(Cl)c(Cl)c2)cc1
- EC50 [10]: 0.122 µM (active)
- EC50 [11]: > 30 µM (not active)
- AC50 [8]: 17.8 µM (inconclusive)

Compound: Cc1ccc(C)c(CSC2=NCCN2C(=O)Cc2ccc([N+](=O)[O-])cc2)c1
- AC50 [4]: 26.3 µM (active)

Compound: O=[N+]([O-])c1ccc(NC(S)=NC(=NCS(=O)(=O)c2ccccc2)c2ccccc2)cc1
- CC50 [6]: 11.1 µM (active)

Compound: CCN=C(S)NNC(=O)c1csc2c1CCCC2
- CC50 [6]: 17.9 µM (active)

Compound: Cc1nc(SCCOc2ccc(F)cc2)c2ccccc2n1
- EC50 [5]: 38.7 µM (active)

Compound: Cn1c(=O)c(CCc2ccccc2)nc2cnc(Nc3ccccc3)nc21
- AC50 [1]: 1.26 µM (inconclusive)
- AC50 [9]: 12.6 µM (inconclusive)
- AC50 [8]: 10 µM (inconclusive)

Compound: C/C=C1\COC(C(=O)NCc2ccccc2)(C(F)(F)F)C=C1C=C(C)C (stereo not given)
- EC50 [5]: > 260 µM (inactive)

Compound: Cc1ccc(CS(=O)(=O)CCC(=O)NCc2cccs2)cc1
- AC50 [1]: 15.8 µM (inconclusive)
- AC50 [8]: 5.01 µM (inconclusive)

Compound: CC[C@H](C(=O)c1cccs1)C(O)(C(F)(F)F)C(F)(F)F
- AC50 [7]: 2 µM (inconclusive)
- AC50 [8]: 7.94 µM (inconclusive)

Compound: COc1ccc(NC(=O)N2CC[C@@]3(CCCN(C(=O)c4ccc(OC)cc4)C3)C2)cc1
- AC50 [1]: 25.1 µM (inconclusive)
- AC50 [8]: 12.6 µM (inconclusive)

Compound: CC(C)Oc1cc(-n2c(=S)[nH]c3ccccc3c2=O)c(Cl)cc1Cl
- AC50 [1]: 12.6 µM (inconclusive)

Compound: Fc1ccccc1OCCCCCCN1CCCC1
- AC50 [7]: 39.8 µM (inconclusive)
- AC50 [1]: 17.8 µM (inconclusive)
- AC50 [9]: 17.8 µM (inconclusive)
- AC50 [8]: 39.8 µM (inconclusive)

Compound: O=C(CCc1ccc(S(=O)(=O)NCc2ccccc2)cc1)NCc1cccnc1
- AC50 [4]: 41.5 µM (active)
